The values that follow come from PMC4331254 (European journal of pharmacology, 2015).

For series [1], the system named is male Sprague-Dawley rats. The note with it: for substitution for phenyzoline discriminative stimulus: full ≥ 80%, partial ≥ 60% and < 80% training drug-appropriate responding.
Series [2] concerns rats discriminating CR4056. The note with it: ref Qiu et al., 2014a; cited from earlier work.
The test system of series [3] is rats discriminating 2-BFI. The note with it: ref MacInnes and Handley, 2002, Jordan et al., 1996; cited from earlier work.
The test system of series [4] is male Sprague-Dawley rats. The note with it: for substitution for BU224 discriminative stimulus: full ≥ 80%, partial ≥ 60% and < 80% training drug-appropriate responding.
A further series deals with alpha 2C (Homo sapiens, UniProt P18825). Briefly: Binding selectivity screening, alpha 2C. The note with it: read-out: % inhibition (10nM).
Sequence of alpha 2C (P18825 whole entry): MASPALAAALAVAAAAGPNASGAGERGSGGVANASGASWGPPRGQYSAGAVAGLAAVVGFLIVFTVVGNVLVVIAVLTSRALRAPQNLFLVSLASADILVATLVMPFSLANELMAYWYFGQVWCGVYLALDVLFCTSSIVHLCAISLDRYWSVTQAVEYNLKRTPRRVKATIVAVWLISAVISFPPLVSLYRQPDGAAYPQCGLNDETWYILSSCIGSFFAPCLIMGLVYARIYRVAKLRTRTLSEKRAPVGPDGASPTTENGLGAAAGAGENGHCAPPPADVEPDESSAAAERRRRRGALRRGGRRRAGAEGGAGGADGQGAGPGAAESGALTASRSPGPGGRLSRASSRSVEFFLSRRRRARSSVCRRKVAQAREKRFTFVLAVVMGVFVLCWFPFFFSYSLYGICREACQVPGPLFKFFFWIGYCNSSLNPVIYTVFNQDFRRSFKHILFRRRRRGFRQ
For a further series, the target named is M4 (Homo sapiens, UniProt P08173). The series can be described thus: biochemical. The class given is binding. The note with it: read-out: % inhibition (10nM).
A further series has as its target M3 (Homo sapiens, UniProt P20309). The series can be described thus: biochemical. The class given is binding. The note with it: read-out: % inhibition (10nM).
Another series deals with alpha 1A (Homo sapiens, UniProt P35348). Briefly: Binding selectivity screening, alpha 1A. The note with it: read-out: % inhibition (10nM).
The next series concerns the target β 2 (Homo sapiens, UniProt P07550). Briefly: Binding selectivity screening, β 2. The note with it: read-out: % inhibition (10nM).
For series [5], the target named is alpha 2B (Homo sapiens, UniProt P18089). Briefly: Binding selectivity screening, alpha 2B. The note with it: read-out: % inhibition (10nM).
Another series addresses δ opioid receptor (Homo sapiens, UniProt P41143). Briefly: Binding selectivity screening, δ opioid receptor. The note with it: read-out: % inhibition (10nM).
Another series concerns the target β 3 (Homo sapiens, UniProt P13945). The series can be described thus: Binding selectivity screening, β 3. The note with it: read-out: % inhibition (10nM).
Another series concerns the target β 1 (Homo sapiens, UniProt P08588). The series can be described thus: Binding selectivity screening, β 1. The note with it: read-out: % inhibition (10nM).
A further series deals with μ opioid receptor (Homo sapiens, UniProt P35372). The series can be described thus: Binding selectivity screening, μ opioid receptor. The note with it: read-out: % inhibition (10nM).
The next series has as its target M5 (Homo sapiens, UniProt P08912). The series can be described thus: biochemical. The class given is binding. The note with it: read-out: % inhibition (10nM).
The target of a further series is alpha 1D (Homo sapiens, UniProt P25100). The series can be described thus: Binding selectivity screening, alpha 1D. The note with it: read-out: % inhibition (10nM).
Sequence of alpha 1D (P25100 whole entry): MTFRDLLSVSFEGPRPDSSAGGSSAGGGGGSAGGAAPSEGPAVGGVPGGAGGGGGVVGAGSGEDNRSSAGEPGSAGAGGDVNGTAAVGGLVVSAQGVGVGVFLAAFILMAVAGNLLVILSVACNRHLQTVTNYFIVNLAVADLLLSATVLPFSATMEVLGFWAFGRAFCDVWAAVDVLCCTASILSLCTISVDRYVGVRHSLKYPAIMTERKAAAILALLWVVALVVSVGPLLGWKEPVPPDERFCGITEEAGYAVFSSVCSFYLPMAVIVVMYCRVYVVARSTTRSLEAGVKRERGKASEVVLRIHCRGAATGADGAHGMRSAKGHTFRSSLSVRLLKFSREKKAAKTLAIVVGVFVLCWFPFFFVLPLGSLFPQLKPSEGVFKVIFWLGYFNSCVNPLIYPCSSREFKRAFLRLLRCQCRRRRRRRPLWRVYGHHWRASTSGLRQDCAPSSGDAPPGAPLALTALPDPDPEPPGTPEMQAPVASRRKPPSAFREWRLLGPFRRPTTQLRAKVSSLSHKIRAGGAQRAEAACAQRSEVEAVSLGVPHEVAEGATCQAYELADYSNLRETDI
Another series addresses 5-HT1D (Homo sapiens, UniProt P28221). Briefly: Binding selectivity screening, 5-HT1D. The note with it: read-out: % inhibition (10nM).
The next series deals with NET (Homo sapiens, UniProt P23975). The series can be described thus: Binding selectivity screening, NET. The note with it: read-out: % inhibition (10nM).
A further series deals with M1 (Homo sapiens, UniProt P11229). Briefly: biochemical. The class given is binding. The note with it: read-out: % inhibition (10nM).
In a further series the target is D1 (Homo sapiens, UniProt P21728). Briefly: Binding selectivity screening, D1. The note with it: read-out: % inhibition (10nM).
Another series addresses alpha 2A (Homo sapiens, UniProt P08913). Briefly: Binding selectivity screening, alpha 2A.
The target in the next series is 5-HT2A (Homo sapiens, UniProt P28223). The series can be described thus: Binding selectivity screening, 5-HT2A. The note with it: read-out: % inhibition (10nM).
The target in another series is M2 (Homo sapiens, UniProt P08172). The series can be described thus: biochemical. The class given is binding. The note with it: read-out: % inhibition (10nM).
In the next series the target is DAT (Homo sapiens, UniProt Q01959). The series can be described thus: Binding selectivity screening, DAT. The note with it: read-out: % inhibition (10nM).
A further series concerns the target 5-HT7 (Homo sapiens, UniProt P34969). Briefly: Binding selectivity screening, 5-HT7. The note with it: read-out: % inhibition (10nM).
For the next series, the target named is D3 (Homo sapiens, UniProt P35462). Briefly: Binding selectivity screening, D3. The note with it: read-out: % inhibition (10nM).
A further series concerns the target D4 (Homo sapiens, UniProt P21917). Briefly: Binding selectivity screening, D4. The note with it: read-out: % inhibition (10nM).
The next series concerns the target 5-HT1E (Homo sapiens, UniProt P28566). The series can be described thus: Binding selectivity screening, 5-HT1E. The note with it: read-out: % inhibition (10nM).
A further series concerns the target H3 (Homo sapiens, UniProt Q9Y5N1). Briefly: Binding selectivity screening, H3. The note with it: read-out: % inhibition (10nM).
In another series the target is 5-HT1B (Homo sapiens, UniProt P28222). The series can be described thus: Binding selectivity screening, 5-HT1B. The note with it: read-out: % inhibition (10nM).
The target in another series is H1 (Homo sapiens, UniProt P35367). Briefly: Binding selectivity screening, H1. The note with it: read-out: % inhibition (10nM).
The target of a further series is 5-HT5A (Homo sapiens, UniProt P47898). The series can be described thus: Binding selectivity screening, 5-HT5A. The note with it: read-out: % inhibition (10nM).
In the next series the target is 5-HT1A (Homo sapiens, UniProt P08908). The series can be described thus: Binding selectivity screening, 5-HT1A.
For a further series, the target named is 5-HT2C (Homo sapiens, UniProt P28335). The series can be described thus: Binding selectivity screening, 5-HT2C. The note with it: read-out: % inhibition (10nM).
The target in another series is κ opioid receptor (Homo sapiens, UniProt P41145). The series can be described thus: Binding selectivity screening, κ opioid receptor. The note with it: read-out: % inhibition (10nM).
For a further series, the target named is D5 (Homo sapiens, UniProt P21918). The series can be described thus: Binding selectivity screening, D5. The note with it: read-out: % inhibition (10nM).
Series [6] has as its target alpha 2B (Homo sapiens, UniProt P35368). The series can be described thus: Binding selectivity screening, alpha 2B. The note with it: read-out: % inhibition (10nM).
The next series has as its target D2 (Homo sapiens, UniProt P14416). The series can be described thus: Binding selectivity screening, D2. The note with it: read-out: % inhibition (10nM).
The target of a further series is H4 (Homo sapiens, UniProt Q9H3N8). Briefly: Binding selectivity screening, H4. The note with it: read-out: % inhibition (10nM).
In the next series the target is SERT (Homo sapiens, UniProt P31645). Briefly: Binding selectivity screening, SERT. The note with it: read-out: % inhibition (10nM).
The target in the next series is 5-HT3 (Homo sapiens, UniProt P46098). Briefly: Binding selectivity screening, 5-HT3. The note with it: read-out: % inhibition (10nM).
The next series has as its system I2 receptors. The note with it: ref Pigini et al., 1997; cited from earlier work.
The mark [7] stands for this setting: 10-min pretreatment, dose ratio 95% CLs included 1.

Where only a bound is given, the exact number is not on record here.

Sequence of M5 (P08912 whole entry): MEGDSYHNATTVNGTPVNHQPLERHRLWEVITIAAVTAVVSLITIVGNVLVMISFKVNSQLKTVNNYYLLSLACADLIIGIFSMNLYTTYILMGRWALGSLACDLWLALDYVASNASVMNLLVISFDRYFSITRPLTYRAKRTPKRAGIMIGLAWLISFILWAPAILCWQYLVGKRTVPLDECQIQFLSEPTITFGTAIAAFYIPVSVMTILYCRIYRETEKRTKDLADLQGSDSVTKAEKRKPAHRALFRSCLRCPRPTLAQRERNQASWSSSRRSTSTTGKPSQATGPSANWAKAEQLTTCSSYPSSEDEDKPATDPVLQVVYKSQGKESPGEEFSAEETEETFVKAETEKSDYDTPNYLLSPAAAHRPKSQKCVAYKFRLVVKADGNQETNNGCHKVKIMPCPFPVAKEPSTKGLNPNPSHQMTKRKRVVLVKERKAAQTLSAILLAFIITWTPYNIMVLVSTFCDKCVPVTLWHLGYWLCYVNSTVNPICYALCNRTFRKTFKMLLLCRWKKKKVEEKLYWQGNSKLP
Sequence of β 1 (P08588 whole entry): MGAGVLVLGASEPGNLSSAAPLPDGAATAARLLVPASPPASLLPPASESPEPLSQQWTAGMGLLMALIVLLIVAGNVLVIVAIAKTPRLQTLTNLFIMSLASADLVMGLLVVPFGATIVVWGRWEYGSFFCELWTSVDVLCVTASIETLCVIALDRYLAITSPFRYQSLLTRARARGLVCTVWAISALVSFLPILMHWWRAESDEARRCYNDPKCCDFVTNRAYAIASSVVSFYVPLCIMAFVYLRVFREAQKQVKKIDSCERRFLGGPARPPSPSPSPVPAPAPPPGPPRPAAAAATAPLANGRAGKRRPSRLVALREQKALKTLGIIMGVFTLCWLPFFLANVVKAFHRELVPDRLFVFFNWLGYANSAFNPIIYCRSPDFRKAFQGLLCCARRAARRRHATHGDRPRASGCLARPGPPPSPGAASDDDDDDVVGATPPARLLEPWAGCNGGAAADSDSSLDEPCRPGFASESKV
Sequence of D4 (P21917 whole entry): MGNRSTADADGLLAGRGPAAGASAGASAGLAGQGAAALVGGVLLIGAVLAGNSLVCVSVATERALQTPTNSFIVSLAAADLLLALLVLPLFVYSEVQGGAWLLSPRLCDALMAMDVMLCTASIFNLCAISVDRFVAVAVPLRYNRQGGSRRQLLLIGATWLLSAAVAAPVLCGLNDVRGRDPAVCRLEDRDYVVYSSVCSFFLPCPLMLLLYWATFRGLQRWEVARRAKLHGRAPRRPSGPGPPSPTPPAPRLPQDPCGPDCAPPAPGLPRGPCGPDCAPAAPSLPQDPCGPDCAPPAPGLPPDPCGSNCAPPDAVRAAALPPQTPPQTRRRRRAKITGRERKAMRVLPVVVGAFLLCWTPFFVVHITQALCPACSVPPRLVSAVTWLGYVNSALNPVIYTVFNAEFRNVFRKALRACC
Sequence of δ opioid receptor (P41143 whole entry): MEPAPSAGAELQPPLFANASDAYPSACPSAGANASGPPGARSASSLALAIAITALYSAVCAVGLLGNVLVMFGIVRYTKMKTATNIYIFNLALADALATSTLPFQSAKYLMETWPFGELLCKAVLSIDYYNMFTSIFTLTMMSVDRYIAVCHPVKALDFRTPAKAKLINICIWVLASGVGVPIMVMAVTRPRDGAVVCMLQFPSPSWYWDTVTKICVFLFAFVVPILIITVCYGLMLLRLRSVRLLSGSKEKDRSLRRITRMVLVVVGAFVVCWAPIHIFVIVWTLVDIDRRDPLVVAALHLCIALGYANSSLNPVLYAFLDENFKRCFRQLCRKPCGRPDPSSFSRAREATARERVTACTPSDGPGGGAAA
Sequence of M3 (P20309 whole entry): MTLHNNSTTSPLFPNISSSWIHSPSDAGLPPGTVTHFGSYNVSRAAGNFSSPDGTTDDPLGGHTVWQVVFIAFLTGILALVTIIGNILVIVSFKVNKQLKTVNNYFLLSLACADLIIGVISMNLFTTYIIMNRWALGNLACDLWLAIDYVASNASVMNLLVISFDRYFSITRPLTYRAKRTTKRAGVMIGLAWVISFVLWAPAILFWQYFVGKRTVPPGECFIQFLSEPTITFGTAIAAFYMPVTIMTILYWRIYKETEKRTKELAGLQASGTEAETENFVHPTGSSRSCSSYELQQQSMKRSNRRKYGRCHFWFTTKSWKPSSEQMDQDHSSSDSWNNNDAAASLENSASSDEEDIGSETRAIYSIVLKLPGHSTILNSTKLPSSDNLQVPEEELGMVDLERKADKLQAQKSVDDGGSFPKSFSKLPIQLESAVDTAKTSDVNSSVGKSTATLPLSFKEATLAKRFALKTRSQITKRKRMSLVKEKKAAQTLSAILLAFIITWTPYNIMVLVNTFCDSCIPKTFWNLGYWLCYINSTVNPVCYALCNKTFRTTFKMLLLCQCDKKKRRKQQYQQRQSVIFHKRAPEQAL
Sequence of H3 (Q9Y5N1 whole entry): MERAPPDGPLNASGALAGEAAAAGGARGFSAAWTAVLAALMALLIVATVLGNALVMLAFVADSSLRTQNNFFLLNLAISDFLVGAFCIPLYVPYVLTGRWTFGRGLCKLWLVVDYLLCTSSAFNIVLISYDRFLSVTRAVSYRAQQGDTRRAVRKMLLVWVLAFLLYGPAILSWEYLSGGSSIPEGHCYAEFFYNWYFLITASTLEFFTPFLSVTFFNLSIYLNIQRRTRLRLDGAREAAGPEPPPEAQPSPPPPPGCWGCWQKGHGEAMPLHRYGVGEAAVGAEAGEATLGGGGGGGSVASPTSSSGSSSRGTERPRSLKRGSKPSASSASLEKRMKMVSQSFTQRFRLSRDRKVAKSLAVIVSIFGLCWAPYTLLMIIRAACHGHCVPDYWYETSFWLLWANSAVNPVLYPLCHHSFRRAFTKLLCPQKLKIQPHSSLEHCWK
Sequence of alpha 2B (Homo sapiens, UniProt P35368) (P35368 whole entry): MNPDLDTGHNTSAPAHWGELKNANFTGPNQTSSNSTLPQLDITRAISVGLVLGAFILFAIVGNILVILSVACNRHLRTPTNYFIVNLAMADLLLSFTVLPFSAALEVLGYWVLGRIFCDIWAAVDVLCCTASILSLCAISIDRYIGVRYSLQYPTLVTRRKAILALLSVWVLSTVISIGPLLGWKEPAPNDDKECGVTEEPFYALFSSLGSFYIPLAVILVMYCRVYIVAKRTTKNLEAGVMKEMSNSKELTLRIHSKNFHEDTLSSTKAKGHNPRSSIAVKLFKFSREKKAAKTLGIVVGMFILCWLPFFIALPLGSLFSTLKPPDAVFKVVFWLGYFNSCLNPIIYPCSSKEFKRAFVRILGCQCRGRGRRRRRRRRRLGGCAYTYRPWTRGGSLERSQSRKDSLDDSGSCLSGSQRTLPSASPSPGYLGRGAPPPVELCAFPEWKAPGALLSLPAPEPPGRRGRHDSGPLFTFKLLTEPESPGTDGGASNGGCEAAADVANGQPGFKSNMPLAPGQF
Sequence of 5-HT7 (P34969 whole entry): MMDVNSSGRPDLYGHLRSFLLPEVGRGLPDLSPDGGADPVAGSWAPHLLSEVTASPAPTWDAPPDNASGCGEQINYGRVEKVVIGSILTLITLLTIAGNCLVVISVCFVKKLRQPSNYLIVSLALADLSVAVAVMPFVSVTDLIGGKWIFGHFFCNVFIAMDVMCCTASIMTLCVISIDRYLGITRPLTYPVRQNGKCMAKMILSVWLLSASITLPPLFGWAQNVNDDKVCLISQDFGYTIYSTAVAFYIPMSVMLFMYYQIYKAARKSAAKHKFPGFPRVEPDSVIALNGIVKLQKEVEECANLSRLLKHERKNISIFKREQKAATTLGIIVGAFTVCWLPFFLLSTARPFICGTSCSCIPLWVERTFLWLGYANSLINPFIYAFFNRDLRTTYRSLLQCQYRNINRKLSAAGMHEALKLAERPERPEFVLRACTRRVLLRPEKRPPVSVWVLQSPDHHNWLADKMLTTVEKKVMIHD

`Cc1nccc2c1[nH]c1ccccc12` [harmane]: the “substitution for phenyzoline discriminative stimulus” value in the series with male Sprague-Dawley rats [1] was “only partially substitutes”. For the same molecule, the “substitution for CR4056 discriminative stimulus” value in [2] is on record as “does not substitute”. In addition, the “substitution for 2-BFI discriminative stimulus” value in [3] was “fully substitute”. Further, the “substitution for BU224 discriminative stimulus” value in the series on male Sprague-Dawley rats [4] is listed as “fully substitutes”.
For the molecule `c1ccc2c(c1)OCC(C1=NCCN1)O2` (stereo not drawn) [idazoxan], in the series on male Sprague-Dawley rats [1], the “substitution for phenyzoline discriminative stimulus” value is recorded as “fully substituted”. Further, the “substitution for 2-BFI discriminative stimulus” value in [3] is given as “fully substitutes”. For the same molecule, the “substitution for BU224 discriminative stimulus” value in the series with male Sprague-Dawley rats [4] is given as “fully substituted”.
Take `CNC1(c2ccccc2Cl)CCCCC1=O` (stereo not drawn) [ketamine]: the “substitution for BU224 discriminative stimulus” value in the series with male Sprague-Dawley rats [4] was “partial or less substitution”.
The same measure, in the same setting: to `CCC(=O)C(CC(C)N(C)C)(c1ccccc1)c1ccccc1` (stereo not drawn) [methadone] belongs “partial or less substitution”.
As for `CN[C@@H](C)Cc1ccccc1` [methamphetamine], the “substitution for phenyzoline discriminative stimulus” value in the series with male Sprague-Dawley rats [1] is reported as “partial substitution”. For the same molecule, the “substitution for BU224 discriminative stimulus” value with male Sprague-Dawley rats [4] is “partial or less substitution”.
Regarding `CN1CC[C@]23c4c5ccc(O)c4O[C@H]2[C@@H](O)C=C[C@H]3[C@H]1C5` [morphine], the “substitution for phenyzoline discriminative stimulus” value in the series with male Sprague-Dawley rats [1] was “partial substitution”. Also, in the series on male Sprague-Dawley rats [4], the “substitution for BU224 discriminative stimulus” value is listed as “partial or less substitution”.
Turning to `O=C1CC[C@@]2(O)[C@H]3Cc4ccc(O)c5c4[C@@]2(CCN3CC2CC2)[C@H]1O5` [naltrexone], the “antagonism of the discriminative stimulus effects of phenyzoline” value in the series with male Sprague-Dawley rats [1] (setting [7]) was “failed to antagonize”. In addition, the “antagonism of the discriminative stimulus effects of BU224” value in the series with male Sprague-Dawley rats [4] (setting [7]) is on record as “failed to antagonize”.
In the case of `c1ccc(CCC2=NCCN2)cc1` [phenyzoline, 4,5-dihidro-2-(2-phenylethyl)-1H-imidazole], the inhibition at 0.01 µM is 29.6% at alpha 2C; -0.5% at M4; -2% at M3; 17.3% on alpha 1A; 22.9% at β 2; 42.7% at alpha 2B [5]. Also, the inhibition at 0.01 µM at δ opioid receptor is -2.7%; at β 3, -5.5%; on β 1, -10.1%; at μ opioid receptor, 5.4%; at M5, 25.9%; at alpha 1D, -0.6%. Besides, the inhibition at 0.01 µM on 5-HT1D is 5%; on NET, 6.8%; on M1 it was -14.1%; on D1, 0.9%; at 5-HT2A, 38.4%; on M2, 11.1%. Further, the inhibition at 0.01 µM at DAT is 43.6%; on 5-HT7 it was 23.7%; at D3, -4.1%; on D4, 9.1%; at 5-HT1E, -4.2%; on H3, 10.4%. The inhibition at 0.01 µM at 5-HT1B was -2.6%; on H1, -10.9%; at 5-HT5A, 4.6%; on 5-HT2C it was 14.3%; on κ opioid receptor, 7.1%; at D5, -11.6%. The inhibition at 0.01 µM was 6.3% at alpha 2B [6]; -7.3% on D2; 15.2% at H4; 21.9% on SERT; -13.3% at 5-HT3. Further, the “duration of discriminative stimulus effects” value with male Sprague-Dawley rats [1] (32 mg/kg phenyzoline i.p.) came out at 90 min. Moreover, the “effect on response rate” value with male Sprague-Dawley rats [1] (rat, in vivo) was “without significantly altering response rate”. In series [2], the “substitution for CR4056 discriminative stimulus” value was “fully substituted”. For the same molecule, the inhibition constant (Ki) on alpha 2A is 851 nM; at 5-HT1A, > 10000 nM.
`C(=C\c1ccccc1)/C1=NCCN1` [tracizoline, 2-styryl-4,5-dihydro-lH-imidazole]: in the series with I2 receptors, the “selectivity for I2 receptors over I1 receptors” value is given as 10 fold and the “selectivity for I2 receptors over α2 adrenoceptors” value is recorded as 7431 fold.
